{"source": "patent US9629828B2", "about": "“Methods of treating traveler's diarrhea and hepatic encephalopathy” (priority 2008, dated 2017)", "key": {"[1]": {"system": "subjects with a history of recurrent, overt, episodic HE", "conditions": "human, in vivo", "description": "At the time of this interim analysis, TEAEs were reported in 230 subjects (86.5%). The most common TEAEs (e.g., in ≧10% of total subjects) experienced by subjects were the following: peripheral edema (15.8%); urinary tract infection and nausea (12.8% each); and abdominal pain and ascites (10.5% each).\nTreatment-emergent SAEs were experienced by 47.4% of subjects."}, "clinical": {"assay": "clinical", "conditions": "human, in vivo", "description": "Results from the current study were compared with historical data from subjects with normal hepatic function."}, "P-gp transporter": {"biological_target": "P-gp transporter (Homo sapiens, UniProt P08183)", "sequence (P08183 whole entry)": "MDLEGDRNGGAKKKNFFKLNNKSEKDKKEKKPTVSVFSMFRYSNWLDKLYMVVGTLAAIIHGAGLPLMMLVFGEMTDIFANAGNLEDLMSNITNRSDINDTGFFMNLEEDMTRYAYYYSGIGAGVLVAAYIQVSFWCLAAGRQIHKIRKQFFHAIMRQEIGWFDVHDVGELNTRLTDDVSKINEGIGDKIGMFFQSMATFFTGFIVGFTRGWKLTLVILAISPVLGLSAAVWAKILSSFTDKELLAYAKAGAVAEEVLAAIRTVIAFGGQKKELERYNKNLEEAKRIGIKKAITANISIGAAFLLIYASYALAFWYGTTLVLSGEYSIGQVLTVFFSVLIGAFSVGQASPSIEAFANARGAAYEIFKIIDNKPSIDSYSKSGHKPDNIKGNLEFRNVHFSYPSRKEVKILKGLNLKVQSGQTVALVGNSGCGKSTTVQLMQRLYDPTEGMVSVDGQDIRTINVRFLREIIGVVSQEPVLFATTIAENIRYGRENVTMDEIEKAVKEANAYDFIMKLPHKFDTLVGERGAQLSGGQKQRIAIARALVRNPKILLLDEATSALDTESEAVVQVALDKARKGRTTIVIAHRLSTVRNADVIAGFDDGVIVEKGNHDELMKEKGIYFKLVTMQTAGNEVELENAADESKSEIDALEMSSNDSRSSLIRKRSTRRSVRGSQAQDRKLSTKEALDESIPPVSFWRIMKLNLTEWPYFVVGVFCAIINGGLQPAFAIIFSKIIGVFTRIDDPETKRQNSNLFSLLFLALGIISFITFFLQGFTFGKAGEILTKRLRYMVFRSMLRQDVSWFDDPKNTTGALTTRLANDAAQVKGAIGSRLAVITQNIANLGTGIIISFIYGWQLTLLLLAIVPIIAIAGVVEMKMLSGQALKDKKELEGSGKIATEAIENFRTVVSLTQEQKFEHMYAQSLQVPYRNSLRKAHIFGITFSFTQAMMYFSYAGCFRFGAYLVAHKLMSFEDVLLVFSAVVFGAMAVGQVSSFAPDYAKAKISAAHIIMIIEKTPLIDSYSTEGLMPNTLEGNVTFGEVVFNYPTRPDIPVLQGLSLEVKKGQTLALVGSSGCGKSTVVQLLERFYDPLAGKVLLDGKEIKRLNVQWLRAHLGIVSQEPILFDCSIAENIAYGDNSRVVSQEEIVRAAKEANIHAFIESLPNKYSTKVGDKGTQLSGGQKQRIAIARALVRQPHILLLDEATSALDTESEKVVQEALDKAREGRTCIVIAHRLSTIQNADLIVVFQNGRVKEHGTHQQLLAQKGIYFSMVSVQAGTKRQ", "assay": "In vitro P-gp transporter inhibition", "format": "in vitro ADME", "conditions": "50 μM"}, "[2]": {"system": "liver transplant patients who presented with HE", "assay": "Chart review of 39 liver transplant patients with HE", "format": "in vivo, human"}, "[3]": {"system": "subjects in remission from hepatic encephalopathy (HE)", "assay": "First study (3001): time to first breakthrough overt HE episode, rifaximin 550 mg BID vs placebo, 6 months", "format": "in vivo, human", "description": "Study 3001 was designed to continuously monitor patients to ensure the validity and completeness of HE breakthrough capture. Following screening, subjects entered a treatment period that included weekly visits and/or phone calls with patients and caregivers. Subjects were followed for the protocol specified 168 days. Complete capture of breakthrough events as well as mortality and provided assurance of the validity of the study outcome. Narratives for each subject experiencing HE breakthrough, AE's resulting in termination, SAEs or death were provided in the NDA.\nEligible subjects had 2 episodes of HE associated with chronic liver disease in the previous 6 months.\nPatients had MELD scores of either […] (27%) or 11 to 18 (64%) at baseline. No patients were enrolled with a MELD score of >25. Nine percent of the patients were Child-Pugh Class C. Lactulose was concomitantly used by 91% of the patients in each treatment arm of the study. Per the study protocol, patients were withdrawn from the study after experiencing a breakthrough HE episode.\nThe primary endpoint was the time to first breakthrough overt HE episode. A breakthrough overt HE episode was defined as a marked deterioration in neurological function and an increase of Conn score to Grade ≧2. In patients with a baseline Conn score of 0, a breakthrough overt HE episode was defined as an increase in Conn score of 1 and asterixis grade of 1.\nAn efficacy endpoint was the time to first breakthrough overt HE episode. A breakthrough overt HE episode was defined as an increase of Conn score to Grade ≧2 (e.g., 0 or 1 to ≧2) or an increase in Conn and asterixis score of 1 grade each for those subjects who entered the study with a Conn score of 0. Time to breakthrough overt HE episode was the duration from time of first dose of study drug to the first breakthrough overt HE episode. […] Subjects who terminated early for reasons other than breakthrough overt HE were contacted at 6 months from randomization to determine if subjects had experienced a breakthrough overt HE episode or other outcome (e.g., mortality status); and, if the subject had no breakthrough overt HE event prior to contact, he/she was censored at the time of contact. […] Subjects in the study had ≧2 episodes of overt HE equivalent to Conn score ≧2 within 6 months prior to screening (i.e., subjects had documented recurrent, overt HE). At the baseline assessment, subjects were in remission with a Conn score of 0 or 1. A breakthrough overt HE episode, as defined above, was a marked deterioration in neurological function.\nPresented herein are the results of the first study and second study. […] The primary efficacy endpoint was the time to breakthrough overt HE. Breakthrough overt HE was defined as an increase of Conn score to Grade ≧2 (e.g., 0 or 1 to ≧2) or an increase in Conn and asterixis score of 1 grade each for those subjects who entered the study with a Conn score of 0. Subjects discontinued from the study at the time of breakthrough overt HE episode. After participation in the first study, subjects had the option to enroll in the open-label, treatment-extension study (the second study).\nFIG. 1 illustrates Kaplan-Meier estimates of time to first breakthrough overt HE episode by treatment group in the ITT population. Table 18 presents Kaplan-Meier estimates of the proportions of subjects who experienced breakthrough overt HE over the course of the Treatment Period and results of statistical analyses. […] Subjects who terminated early for reasons other than breakthrough overt HE (e.g., liver transplant, AE, subject request) were contacted at 6 months from date of randomization to determine if subjects had experienced a breakthrough overt HE episode or other outcome (e.g., mortality status). Subjects without breakthrough overt HE were censored at the time of contact or death, whichever was earlier."}, "in vitro": {"assay": "in vitro", "conditions": "human, plasma"}, "[4]": {"conditions": "both, human, in vivo", "procedure": "Two studies evaluated the pharmacokinetics of rifaximin in patients with hepatic impairment. […] Because of the limited systemic absorption of rifaximin, no specific dosing adjustments are recommended for patients with hepatic insufficiency.\nA pharmacokinetic investigation was performed in subjects with HE in a dose-finding study."}}, "note": "Several values for one entry are separate records, joined by “and”; a condition that tells them apart may be missing. Equal entries are not always repeated."}
{"smiles": "CO[C@H]1/C=C/O[C@@]2(C)Oc3c(C)c(O)c4c(O)c(c5c(nc6cc(C)ccn65)c4c3C2=O)NC(=O)/C(C)=C\\C=C\\[C@H](C)[C@H](O)[C@@H](C)[C@@H](O)[C@@H](C)[C@H](OC(C)=O)[C@@H]1C", "note": "[rifaximin, (2S,16Z,18E,20S,21S,22R,23R,24R,25 S,26S,27S,28E)-5,6,21,23,25-pentahydroxy-27-methoxy-2,4,11,16,20,22,24,26-octamethyl-2,7-(epoxypentadeca-[1,11,13]trienimino)benzofuro[4,5-e]pyrido[1,2-á]-benzimidazole-1,15(2H)-dione,25-acetate]", "values": [{"measurement": "TEAE abdominal pain", "setting": "[1]", "result": 10.5, "unit": "%"}, {"measurement": "TEAE ascites", "setting": "[1]", "result": 10.5, "unit": "%"}, {"measurement": "TEAE nausea", "setting": "[1]", "result": 12.8, "unit": "%"}, {"measurement": "TEAE peripheral edema", "setting": "[1]", "result": 15.8, "unit": "%"}, {"measurement": "TEAE urinary tract infection", "setting": "[1]", "result": 12.8, "unit": "%"}, {"measurement": "subjects with HE counted for the safety analyses", "setting": "[1]", "result": 21.4, "unit": "%"}, {"measurement": "subjects with TEAEs", "setting": "[1]", "result": 86.5, "unit": "%"}, {"measurement": "subjects with at least 1 severe TEAE", "setting": "[1]", "result": 40.2, "unit": "%"}, {"measurement": "subjects with treatment-emergent SAEs", "setting": "[1]", "result": 47.4, "unit": "%"}, {"measurement": "Cmax", "setting": "clinical", "result": "< 4", "unit": "ng/mL"}, {"measurement": "AUC", "setting": "clinical; 550 mg", "result": 12.3, "unit": "ng·h/mL"}, {"measurement": "inhibition of transport of a model P-gp substrate", "setting": "P-gp transporter", "result": "only partially inhibited"}, {"measurement": "hospitalizations reported", "setting": "[2]; 15 rifaximin, 24 lactulose patients", "result": 3}, {"measurement": "average length of stay", "setting": "[2]; human, in vivo", "result": 3.5, "unit": "days"}, {"measurement": "reduction in risk of breakthrough overt HE vs placebo, adjusted for prognostic factors", "setting": "[3]; 550 mg BID", "result": 60, "unit": "%"}, {"measurement": "reduction in risk of breakthrough overt HE vs placebo", "setting": "[3]; 550 mg BID, 6-month treatment", "result": "58% and 57.9%"}, {"measurement": "subjects with breakthrough overt HE episodes", "setting": "[3]; 550 mg BID, 6 months", "result": 22, "unit": "%"}, {"measurement": "subjects with breakthrough overt HE episodes", "setting": "[3]; 550 mg BID, up to Day 170", "result": "31 of 140"}, {"measurement": "Survival", "setting": "[3]; N = 140; days: r10 [0-28), r11 [28-56), r12 [56-84), r13 [84-140), r14 [140-168), r15 >=168", "result": "1.0000 and 0.9071 and 0.8783 and 0.8344 and 0.7820 and 0.7740"}, {"measurement": "time to first breakthrough overt HE by region", "setting": "[3]; North America versus Russia", "result": "highly significant protective effect"}, {"measurement": "Survival", "setting": "[3]; by Baseline MELD Score Level, N = 11, days r10-r15 as E1301", "result": "1.0000 and 0.9091 and 0.6364"}, {"measurement": "Survival", "setting": "[3]; by Baseline MELD Score Level, N = 85, days r10-r15 as E1201", "result": "1.0000 and 0.9059 and 0.8822 and 0.8459 and 0.7713 and 0.7580"}, {"measurement": "Survival", "setting": "[3]; by Prior Lactulose Use, N = 123, days r10-r15 as E801", "result": "1.0000 and 0.9024 and 0.8696 and 0.8278 and 0.7678 and 0.7586"}, {"measurement": "Survival", "setting": "[3]; by Prior Lactulose Use, N = 127, days r11-r21 as E1401", "result": "1.0000 and 0.9055 and 0.8737 and 0.8252 and 0.7754 and 0.7666"}, {"measurement": "patients experiencing a Conn Score of >=2", "setting": "[3]; component of breakthrough HE", "result": 20, "unit": "%"}, {"measurement": "patients with worsening of Conn and asterixis grade of 1 each", "setting": "[3]; component of breakthrough HE", "result": 2, "unit": "%"}, {"measurement": "rate of breakthrough HE episodes adjusted for exposure", "setting": "[3]; first study rifaximin group", "result": 0.62, "unit": "events/PEY"}, {"measurement": "patients with zero events over 6 months", "setting": "[3]; in vivo", "result": 78, "unit": "%"}, {"measurement": "time to breakthrough HE events vs placebo (FIG. 2)", "setting": "[3]; in vivo", "result": "increased time to breakthrough HE events"}, {"measurement": "fraction unbound", "setting": "in vitro", "result": 0.447}, {"measurement": "mean amount recovered in 24-h urine after last dose", "setting": "[4]", "result": "0.06-0.1 % of dose"}, {"measurement": "administered dose recovered in urine", "setting": "[4]; 7 days", "result": "less than 0.1%"}]}
